Usually MIC stands for the least concentration at which growth counts as inhibited. A word on the MIC80: it is an inhibitory concentration at the 80% level, which refers to growth in some studies and to a panel of isolates in others. A low value points to higher susceptibility.

Each structure is given as a SMILES string. ≈ marks a conversion by molar mass, not a printed value.

The record followed here is ChEMBL document CHEMBL4396865, “Current advances of triazole alcohols derived from fluconazole: Design, in vitro and in silico studies” (2019).

Holding throughout (assay type): functional
In assay [1] the test system is Candida albicans. The assay is described as follows: Antifungal activity against Candida albicans. The settings on record: Candida albicans; for MIC: read-out: MIC.
The test system of another assay is Pichia norvegensis. In words: Antifungal activity against Candida mycoderma.
Assay [2] has as its system Pichia kudriavzevii. In words: Antifungal activity against Candida krusei.
Assay [3] deals with Pichia kudriavzevii. The assay is described as follows: Potency index, ratio of fluconazole MIC to test compound MIC for Candida krusei.
The subject of assay [4] is Candida albicans. In words: Potency index, ratio of fluconazole MIC to test compound MIC for Candida albicans.
For assay [5], the system named is Trichophyton rubrum. In words: Potency index, ratio of fluconazole MIC80 to test compound MIC80 for Trichophyton rubrum.
The test system of assay [6] is Cryptococcus neoformans. In words: Antifungal activity against Cryptococcus neoformans. As to conditions: Cryptococcus neoformans.
Assay [7] deals with Candida parapsilosis. The assay is described as follows: Antifungal activity against Candida parapsilosis. As to conditions: Lodderomyces parapsilosis.
The test system of assay [8] is Nannizzia gypsea. In words: Potency index, ratio of fluconazole MIC80 to test compound MIC80 for Microsporum gypseum.
Assay [9] concerns Aspergillus fumigatus. In words: Antifungal activity against Aspergillus fumigatus after 24 hrs.
Assay [10] deals with Candida albicans. The assay is described as follows: Antifungal activity against Candida albicans Y0109 after 24 hrs. The settings on record: Y0109, 24 h.
In assay [11] the test system is Candida albicans. In words: Antifungal activity against Candida albicans ATCC SC5314 after 24 hrs. As to conditions: ATCC SC5314, 24 h.
Assay [12] concerns Pichia kudriavzevii. In words: Antifungal activity against Candida krusei after 24 hrs.
Assay [13] deals with Cryptococcus neoformans. The assay is described as follows: Antifungal activity against Cryptococcus neoformans after 24 hrs.
Assay [14] relates to Trichophyton rubrum. The assay is described as follows: Antifungal activity against Trichophyton rubrum after 24 hrs.
Assay [15] relates to Candida parapsilosis. The assay is described as follows: Antifungal activity against Candida parapsilosis after 24 hrs. As to conditions: Lodderomyces parapsilosis.
The test system of assay [16] is Nannizzia gypsea. The assay is described as follows: Antifungal activity against Microsporum gypseum after 24 hrs.
Assay [17] deals with Candida albicans. In words: Antifungal activity against Candida albicans after 48 hrs by NCCLS protocol based method.
The subject of assay [18] is Candida parapsilosis. The assay is described as follows: Antifungal activity against Candida parapsilosis after 48 hrs by NCCLS protocol based method. As to conditions: Lodderomyces parapsilosis.
Assay [19] concerns Candida albicans. The assay is described as follows: Antifungal activity against Candida albicans infected in Caenorhabditis elegans assessed as survival at 16 ug/ml relative to control.
The test system of assay [20] is Cryptococcus neoformans. In words: Potency index, ratio of fluconazole MIC to test compound MIC for Cryptococcus neoformans infected in Caenorhabditis elegans.
In assay [21] the test system is Cryptococcus neoformans. The assay is described as follows: Antifungal activity against Cryptococcus neoformans infected in Caenorhabditis elegans.
Assay [22] concerns Candida parapsilosis. The assay is described as follows: Antifungal activity against fluconalzole-resistant Candida parapsilosis after 24 hrs. The settings on record: Lodderomyces parapsilosis.
For assay [23], the system named is Candida albicans. In words: Antifungal activity against fluconalzole-resistant Candida albicans after 24 hrs.
Assay [24] deals with Candida albicans. In words: Antifungal activity against fluconalzole-susceptible Candida albicans after 24 hrs.
The subject of assay [25] is Candida parapsilosis. In words: Antifungal activity against fluconalzole-susceptible Candida parapsilosis after 24 hrs. The settings on record: Lodderomyces parapsilosis.
The subject of assay [26] is Cryptococcus neoformans. In words: Antifungal activity against Cryptococcus neoformans after 72 hrs by NCCLS protocol based method.
The subject of assay [27] is Aspergillus fumigatus. The assay is described as follows: Antifungal activity against Aspergillus fumigatus after 24 hrs by microbroth dilution method. In general terms: Dilution methods test growth across graded concentrations, often in twofold steps.
In a further assay the test system is Microsporum canis. The assay is described as follows: Antifungal activity against Microsporum canis after 24 hrs by microbroth dilution method.
In assay [28] the test system is Candida tropicalis. The assay is described as follows: Antifungal activity against Candida tropicalis. The settings on record: Candida tropicalis; read-out: MIC.
The test system of assay [29] is Candida albicans. The assay is described as follows: Antifungal activity against Candida albicans after 24 hrs by NCCLS protocol based method.
The test system of assay [30] is Nannizzia gypsea. In words: Antifungal activity against Microsporum gypseum after 7 days by NCCLS protocol based method. The settings on record: 168 h.
Assay [31] deals with Candida tropicalis. In words: Antifungal activity against Candida tropicalis after 24 hrs by microbroth dilution method.
The test system of a further assay is Fonsecaea compacta. The assay is described as follows: Antifungal activity against Fonsecaea compacta after 24 hrs by microbroth dilution method.
In a further assay the test system is Kluyveromyces marxianus. The assay is described as follows: Antifungal activity against Candida kefyr. As to conditions: Kluyveromyces marxianus; read-out: MIC.
In assay [32] the test system is Candida albicans. The assay is described as follows: Antifungal activity against Candida albicans infected in Caenorhabditis elegans assessed as survival at 32 ug/ml relative to control.
The subject of assay [33] is Trichophyton rubrum. In words: Antifungal activity against Trichophyton rubrum after 24 hrs by microbroth dilution method.
Assay [34] concerns Candida tropicalis. In words: Antifungal activity against Candida tropicalis after 24 hrs by NCCLS protocol based method.
For assay [35], the system named is Aspergillus fumigatus. In words: Antifungal activity against Aspergillus fumigatus. The settings on record: Aspergillus fumigatus.
Assay [36] relates to Trichophyton rubrum. In words: Antifungal activity against Trichophyton rubrum after 7 days by NCCLS protocol based method. The settings on record: 168 h.
Assay [37] deals with Trichophyton rubrum. The assay is described as follows: Antifungal activity against Trichophyton rubrum. The settings on record: Trichophyton rubrum; read-out: MIC.

On to `O=C(O)c1cn(C2CC2)c2c(Cl)c(N3CCC(NCC(O)(Cn4cncn4)c4ccc(F)cc4)C3)c(F)cc2c1=O` (configuration not stated), for which the MIC with Candida albicans [1] and against Pichia norvegensis was 0.25 to 2 µg/mL (≈ 0.427 to 3.42 µM) each time.

For the compound `O=C(O)c1cn(C2CC2)c2c(Cl)c(N3CCC(NCC(O)(Cn4cncn4)c4ccc(Cl)c(Cl)c4)C3)c(F)cc2c1=O` (configuration not stated), the minimal inhibitory concentration (MIC) in the assay with Candida albicans [1] and with Pichia norvegensis was 0.25 to 2 µg/mL (≈ 0.393 to 3.15 µM) each time.

As to `O=C(O)c1cn(C2CC2)c2c(Cl)c(N3CCC(NCC(O)(Cn4cncn4)c4ccc(F)c(F)c4)C3)c(F)cc2c1=O` (configuration not stated), the MIC in the assay with Candida albicans [1] and in the assay on Pichia norvegensis was 0.25 to 2 µg/mL (≈ 0.415 to 3.32 µM) throughout.

Take `O=C(O)c1cn(C2CC2)c2c(Cl)c(N3CCC(NCC(O)(Cn4cncn4)c4ccc(F)cc4F)C3)c(F)cc2c1=O` (configuration not stated): the minimal inhibitory concentration (MIC) with Candida albicans [1] and in the assay with Pichia norvegensis was 0.25 to 2 µg/mL (≈ 0.415 to 3.32 µM) each time.

As to `C#CCN(Cc1ccc(F)cc1F)CC(O)(Cn1cncn1)c1ccc(F)cc1F` (configuration not stated), the MIC80 against Pichia kudriavzevii [2] and against Candida albicans [1] was 0.00097 µg/mL (≈ 0.00232 µM) throughout. Moreover, the Ratio came out at 64 in the assay with Pichia kudriavzevii [3] and 515 in the assay with Candida albicans [4].

Consider `OC(CN1CCN(Cc2cn(Cc3ccc(Br)cc3)nn2)CC1)(Cn1cncn1)c1ccc(F)cc1F` (configuration not stated), for which the Ratio in the assay with Trichophyton rubrum [5] and in the assay on Nannizzia gypsea [8] was 4 - 128 throughout. Also, the MIC80 in the assay on Cryptococcus neoformans [6], against Candida albicans [1] and in the assay on Candida parapsilosis [7] was ≤ 0.5 µg/mL throughout.

For the compound `OC(Cc1cn(CCOCc2ccc(Br)cc2)nn1)(Cn1cncn1)c1ccc(F)cc1F` (configuration not stated), the MIC against Aspergillus fumigatus [9], against Candida albicans [10], with Candida albicans [11], against Pichia kudriavzevii [12], in the assay with Cryptococcus neoformans [13] and with Trichophyton rubrum [14] was 0.0156 to 0.0625 µg/mL (≈ 0.03 to 0.12 µM) in each case. Further, the minimum inhibitory concentration (MIC) against Candida parapsilosis [15] and in the assay on Nannizzia gypsea [16] was 0.0156 to 0.0625 µg/mL (≈ 0.03 to 0.12 µM) in each case.

For the compound `COC(=O)CC[C@@H](C)[C@H]1CC[C@H]2[C@@H]3[C@H](O)C[C@@H]4C[C@@H](n5cc(CC(O)(Cn6cncn6)c6ccc(F)cc6F)nn5)CC[C@]4(C)[C@H]3C[C@H](O)[C@]12C` (some centres not stated), the MIC against Candida albicans [17] and against Candida parapsilosis [18] was 3.12 to 6.25 µg/mL (≈ 4.39 to 8.79 µM) each time.

Consider `OC(Cn1cncn1)(Cn1cc(C2CC2)nn1)c1ccc(F)cc1F` (configuration not stated), for which the minimum inhibitory concentration (MIC) in the assay with Candida albicans [1] was determined as 0.125 µg/mL (≈ 0.361 µM). Besides, the survival at 16 µg/mL in the assay with Candida albicans [19] worked out at 70%.

As for `C[C@H](CCCn1cc(CC(O)(Cn2cncn2)c2ccc(F)cc2F)nn1)[C@H]1CC[C@H]2[C@@H]3[C@H](O)C[C@@H]4C[C@H](O)CC[C@]4(C)[C@H]3C[C@H](O)[C@]12C` (some centres not stated), the MIC against Candida albicans [17] and with Candida parapsilosis [18] was 3.12 to 6.25 µg/mL (≈ 4.57 to 9.15 µM) in each case.

On to `C[C@H](CCCn1cc(CC(O)(Cn2cncn2)c2ccc(F)cc2F)nn1)[C@H]1CC[C@H]2[C@@H]3CC[C@@H]4C[C@H](O)CC[C@]4(C)[C@H]3C[C@H](O)[C@]12C` (some centres not stated), for which the minimal inhibitory concentration (MIC) in the assay with Candida albicans [17] and in the assay with Candida parapsilosis [18] was 3.12 to 6.25 µg/mL (≈ 4.68 to 9.37 µM) each time.

Consider `OC(Cc1cn(C2CCCC2)nn1)(Cn1cncn1)c1ccc(F)cc1F` (configuration not stated), for which the Ratio in the assay with Cryptococcus neoformans [20] stood at 8. For the same compound, the MIC in the assay on Cryptococcus neoformans [21] came to 0.25 µg/mL (≈ 0.668 µM).

Turning to `OC(Cn1cncn1)(Cn1cnc(SCc2cccc(Cl)c2)n1)c1ccc(F)cc1F` (configuration not stated), the minimal inhibitory concentration (MIC) lay within 0.125 to 16 µg/mL (≈ 0.27 to 34.6 µM) against Candida parapsilosis [22], 0.125 to 16 µg/mL (≈ 0.27 to 34.6 µM) in the assay on Candida albicans [23], 0.063 to 1 µg/mL (≈ 0.136 to 2.16 µM) in the assay with Candida albicans [24] and 0.063 to 1 µg/mL (≈ 0.136 to 2.16 µM) in the assay on Candida parapsilosis [25].

With `OC(Cn1cncn1)(Cn1cncn1)c1ccc(F)cc1F` [FLUCONAZOLE], the minimal inhibitory concentration (MIC) was 0.5 µg/mL (≈ 1.63 µM) with Cryptococcus neoformans [26]; 0.125 to 8 µg/mL (≈ 0.408 to 26.1 µM) in the assay on Candida tropicalis [28]; ≥ 64 µg/mL with Aspergillus fumigatus [9]; ≥ 64 µg/mL with Candida albicans [10]; 0.5 µg/mL (≈ 1.63 µM) against Candida albicans [29]; 1 µg/mL (≈ 3.27 µM) in the assay with Cryptococcus neoformans [6] (read-out: MIC). For the same compound, the minimum inhibitory concentration (MIC) against Nannizzia gypsea [30] was 0.5 µg/mL (≈ 1.63 µM); with Candida albicans [11] it was ≥ 64 µg/mL; with Candida albicans [1], 0.5 µg/mL (≈ 1.63 µM); against Pichia kudriavzevii [12] it was ≥ 64 µg/mL; in the assay on Cryptococcus neoformans [13], ≥ 64 µg/mL; against Trichophyton rubrum [14], ≥ 64 µg/mL. Also, the MIC with Kluyveromyces marxianus was 0.125 to 8 µg/mL (≈ 0.408 to 26.1 µM); against Candida parapsilosis [15], ≥ 64 µg/mL; against Nannizzia gypsea [16] it was ≥ 64 µg/mL; in the assay on Candida parapsilosis [7] (read-out: MIC) it was 1 µg/mL (≈ 3.27 µM); in the assay on Candida albicans [24], 0.5 to 4 µg/mL (≈ 1.63 to 13.1 µM); in the assay on Candida parapsilosis [25], 0.5 to 4 µg/mL (≈ 1.63 to 13.1 µM). The MIC is 0.5 µg/mL (≈ 1.63 µM) with Candida tropicalis [34], 0.5 µg/mL (≈ 1.63 µM) against Trichophyton rubrum [36] and 0.125 to 8 µg/mL (≈ 0.408 to 26.1 µM) in the assay with Trichophyton rubrum [37]. The MIC80 in the assay with Aspergillus fumigatus [27] is ≥ 0.5 µg/mL; against Microsporum canis, ≥ 0.5 µg/mL; in the assay on Candida tropicalis [31], ≥ 0.5 µg/mL; in the assay with Fonsecaea compacta, ≥ 0.5 µg/mL; against Trichophyton rubrum [33], ≥ 0.5 µg/mL; in the assay with Aspergillus fumigatus [35], > 200 µM. Besides, the survival at 32 µg/mL in the assay on Candida albicans [32] turned out to be 60%.
